# Data: US5521315A, “Olefin substituted long chain compounds” (priority 1993, dated 1996)
# pIC50: −log10 of the molar value. Entries after “also recorded” stand apart in the source; their conditions may differ.
# Assays:
# [1] = system: CMV promoter activity in transformed (adenovirus) cells; test: CMV promoter assay (gene transcription and translation; cytotoxicity in transformed cells); assay type: cell-based
# Source text: FIG. 18 illustrates data regarding proliferative activity of various inventive compounds for inducting CMV promoter activity. The CMV promoter assay measures gene transcription and translation activity wherein any active compounds will have cytotoxic activity to inhibit cellular protein synthesis machinery in transformed (adenovirus) cells.
# This example illustrates data regarding proliferative activity of various inventive compounds for inducting CMV promoter activity. The CMV promoter assay measures gene transcription and translation activity wherein any active compounds will have cytotoxic activity to inhibit cellular protein synthesis machinery in transformed (adenovirus) cells.
# [2] = system: PBMC in mixed lymphocyte assay culture; test: Percent viable cells in mixed lymphocyte assay culture after six days; assay type: cell-based, human; conditions: for cytotoxicity in mixed lymphocyte assay culture: 100 μM, six days of culture
# [3] = system: PBMC (peripheral blood mononuclear cells); test: Two-way mixed lymphocyte reaction (MLR), proliferation of PBMC to allogeneic stimulation; assay type: cell-based, human; conditions: for mixed lymphocyte reaction activity: FIGS. 1 and 2
# Source text: Various in vitro assays can be used to measure effects of the inventive compounds to module immune activity and have antitumor activity using a variety of cellular types. For example, a mixed lymphocyte reaction (MLR) provides a valuable screening tool to determine biological activity of each inventive compound. In the MLR, PBMCs (peripheral blood mononuclear cells) are obtained by drawing whole blood from healthy volunteers in a heparinized container and diluted with an equal volume of hanks balanced salt solution (HBSS). This mixture is layered on a […] density gradient, such as a Ficoll-Hypaque® gradient (specific gravity 1.08), and centrifuged at 1000×g for 25 minutes at room temperature or cooler. PBMC are obtained from a band at a plasma-Ficoll interface, separated and washed at least twice in a saline solution, such as HBSS. Contaminating red cells are lysed, such as by ACK lysis for 10 min at 37° C., and the PBMCs are washed twice in HBSS. The pellet of purified PBMCs is resuspended in complete medium, such as RPMI 1640 plus 20% human inactivated serum. Proliferative response of PBMC to allogeneic stimulation is determined in a two-way MLR performed in a 96-well microliter plate. Briefly, approximately 10^5 test purified PBMC cells in […] complete medium are co-cultured with approximately 10^5 autologous (control culture) or allogeneic (stimulated culture) PBMC cells, wherein the allogeneic cells are from HLA disparate individuals. Varying doses of compounds (drug) are added at the time of addition of cells to the microtiter plate. The cultures are incubated for 6 days at 37° C. in a 5% CO2 atmosphere. At the conclusion of the incubation tritiated thymidine is added (for example, […] of 40 to 60 Ci/mmole) and proliferation determined by liquid scintillation counting.
# This example illustrates a mixed lymphocyte reaction assay of inventive compounds by showing the IC50 value of each compound in this assay and a dose response of several compounds to illustrate an IC50 determination.
# human lymphocytes [4] = test: IL-2 induced blastogenesis assay; assay type: cell-based; conditions: human IL-2, six days; FIG. 12
# Method: (§1) Briefly, human lymphocytes are obtained from blood from normal volunteers and plated into wells at 2×10^5 cells/well. Human IL-2 ([…] or 5 μl of a 100 U/ml solution) and drug at various concentrations are added to each well. The cells are incubated for six days and then proliferation is determined by a standard tritiated thymidine incorporation procedure. […] However, both CT1406 and CT1442 were active, as is shown by IC50 values in FIG. 12.
# as §1, with “This example illustrates the effects of four inventive compounds to inhibit proliferation of human lymphocytes in an IL-2 induced blastogenesis in vitro assay. […] Briefly,” for “Briefly,”, “cells am” for “cells are”
# mast cell degranulation = test: Serotonin release assay (inhibition of mast cell degranulation); assay type: cell-based; conditions: 50 μM; for RELEASE-SPONT / AVERAGE % RELEASE / inhibition at 50 µM: Table 4; for RELEASE-SPONT: average corrected for spontaneous release; for AVERAGE % RELEASE: average of duplicates; for inhibition at 50 µM: Mast cell
# Source text: A serotonin release assay is utilized to study the utility of the inventive compounds for treatment of asthma and allergy. […] This assay measures mast cell degranulation, which is an early phase reaction to allergen challenge. Mast cells grown in tissue culture are first loaded with ^3 H serotonin, which is incorporated into the granules in the cells. The mast cells are sensitized with antigen specific monoclonal IgE, and then triggered to degranulate with the specific antigen (dinitorphenolbound to BSA (DNP)). When the cells degranulate, ^3 H Serotonin is released into the medium, and can be measured directly. The ability of the inventive compounds to inhibit the degranulation response is determined by the decrease in ^3 H Serotonin released in the presence of drug and is represented as % INHIBITION.
# Specifically, the serotonin release assay seeds 2×10^5 cells in 0.5 ml medium in duplicate for spontaneous release, IgE+DNP, IgE+DNP+EtOH (vehicle control), and inventive compounds. […] The cells are incubated for 18 hours at 37° C. in 5% CO2, washed twice with 0.5 ml Isotonic Buffer (25 mM disodium PIPES pH 7.1,100 mM NaCl, 5 mM KCl, 5 mM glucose, 0.4 mM MgCl2, 1mM CaCl2, 0.1% BSA), and sterile filtered. 250 μl Isotonic Buffer is added per well and the plates are equilibrated in an incubator for about 10 min. Drug is added and cells are activated with 40 ng/ml DNP-BSA (1 mg/ml Diluted 1:200 in Isotonic Buffer) for 45 minutes using 2 μl/250 μl. Spontaneous release is determined in incubated cells with 250 μl Isotonic Buffer for 45 minutes and the reaction is stopped by removing supernatant and centrifuging at ~4000 rpm in microfuge for 15 seconds to remove any detached cells. Released radiolableled serotonin is counted. To determine amount of ^3 H-serotonin incorporated into the cells, (a) remove Isotonic Buffer and lyse cells by adding 250 μl 1% Triton-X100 in PBS, (b) add to 5 ml scintillation fluid, (c) wash 2× with Triton/PBS, and (d) add washes to scintillation tube. Percent serotonin release is calculated by dividing the amount of released serotonin by the sum of incorporated plus released serotonin and correcting for spontaneous released serotonin. Compound inhibition is calculated by dividing the percent serotonin release in the presence of a compound by the percent serotonin release in the absence of the compound.
# This assay is described above and provides an in vitro model for an allergy and asthma therapeutic product.
# murine thymocyte = test: Murine thymocyte stimulated by ConA and IL-2 (T cell immune suppression); assay type: cell-based; conditions: FIGS. 8 and 9
# Method: A thymocyte costimulator assay is conducted to evaluate the inventive compounds to inhibit activation and proliferation of thymocytes caused by stimulation with Con A and interleukin-1 (IL-1), or […]. Thymuses are obtained from mice (e.g., female Balb/C mice) and the thymuses are removed and dissociated into culture media (e.g., RPMI 1640 without serum supplementation). The dissociated thymus tissue and cell suspension is transferred to centrifuge tubes and allowed to settle, washed with HBSS and resuspended in serum-supplemented culture media (e.g., RPMI 1640 with 10% fetal calf serum). Any contaminating red cells are lysed, and viable cells are resuspended and counted. Thymocytes are plated (e.g., 96-well plates at a density of 2×10^5 cells/well) and a stimulating agent, such as Con A, IL-1 (e.g., IL-1α) or IL-2 is added to the well. The cells are incubated for 4 days at 37° C. On the fourth day, the cells are pulsed with tritiated thymidine and cell proliferation determined. Inventive compounds are added at the time of stimulating agent addition.
# A third assay measures an ability of an inventive compound to inhibit IL-2-induced proliferation of murine thymocytes. Thymus glands are obtained from 4-6 week old mice and plated as a single cell suspension into flat bottomed wells in RPMI 1640 medium supplemented with 10% fetal calf serum. The inventive compounds are added to appropriate wells and the cells are incubated for 1-2 hrs. Concanavilin A (ConA, 0.25 mg/ml) and […] (20 ng/ml) are added and the plates are incubated for 4 days. Cell proliferation is determined as above.
# FIG. 8 compares T cell immune suppression data of thirteen inventive compounds by comparing their IC50 values in a murine thymocyte stimulated by ConA and IL-2 in vitro model.
# human lymphocytes [5] = test: CD3 blastogenesis assay; assay type: cell-based; conditions: IL-2 or CD3 blastogenesis; FIG. 13
# Method: The CD3 blastogenesis assay is virtually identical to the IL-2 blastogenesis assay described herein, except a human anti-CD3 monoclonal antibody (4 μg/ml, Boehinger Manheimm) is used instead of human IL-2 and the cells are incubated for only three days.
# This example illustrates various IC50 values of five inventive compounds as determined by an IL-2 blastogenesis assay described in example 44 above or a CD3 blastogenesis assay. The CD3 blastogenesis assay is virtually identical to the IL-2 blastogenesis assay described herein, except a human anti-CD3 monoclonal antibody (4 μg/ml, Boehinger Manheimm) is used instead of human IL-2 and the cells are incubated for only three days.
Compound,pIC50 [1],cytotoxicity in mixed lymphocyte assay culture [2],therapeutic window ([2]; cytotoxicity at 100 μM vs MLR IC50),mixed lymphocyte reaction activity [3],"pIC50 ([3]; Homo sapiens, PBMC, FIGS. 3 and 4)",activity in IL-2 blastogenesis assay (human lymphocytes [4]),RELEASE-SPONT (mast cell degranulation) [%],AVERAGE % RELEASE (mast cell degranulation) [%],inhibition at 50 µM (mast cell degranulation) [%],T cell immune suppressing activity (murine thymocyte),activity in serotonin release assay (mast cell degranulation),immune suppressing activity in blastogenesis assays (human lymphocytes [5])
"C=CCCCCCCCCCn1c(=O)c2[nH]cnc2n(C)c1=O [CT1406, 1-(10-undecenyl)-3-methylxanthine]",4.22,the most cytotoxic at 100 μM,significant therapeutic window,the most potent activity,4.70,active,3.26,19.81,59.4,,,
"CC/C=C\CCCCCn1c(=O)c2[nH]cnc2n(C)c1=O [CT1442, 1-(6-cis-nonenyl)-3-methylxanthine]",,little or no cytotoxicity at concentrations well above its effective concentrations,,the most potent activity,,active,2.94,19.49,63.4,potent immune suppressing activity,increases the activity,
"CCCCC/C=C\C/C=C\CCCCCCCCn1c(=O)c2c(ncn2C)n(C)c1=O [CT1524, 1-(cis,cis-9,12-octadecadienyl)-3,7-dimethylxanthine]",4.30,,,showed activity within dose ranges achievable in vivo,,,13.90,30.46,-73.3,potent immune suppressing activity,may be showing some toxicity at the concentration of 50 μM,significant immune suppressing activity
"C=CCCCCCCCCCn1c(=O)c2c(ncn2C)n(C)c1=O [CT2501, 1-(10-undecenyl)-3,7-dimethylxanthine]",3.70,little or no cytotoxicity at concentrations well above its effective concentrations,,showed activity within dose ranges achievable in vivo,,,2.50,19.06,68.8,,the two most potent compounds in this group,significant immune suppressing activity
"CC/C=C/CCCCCn1c(=O)c2c(ncn2C)n(C)c1=O [CT2512, 1-(6-trans-nonenyl)-3,7-dimethylxanthine]",4.30,,,,,,1.65,18.20,79.5,,appears to increase the activity; also recorded: increases the activity,significant immune suppressing activity
Cyclosporin A [reference compound],,,,,,does not show significant activity,,,,,,generally not very active
